Data as given in patent US10406120B2, “Methods and compositions for treating kidney disorders” (Golden Biotechnology Corporation, priority 2013, dated 2019).

What was measured:
NF-κB p65 = test: FSGS model: renal NF-κB activation (IHC, ELISA); assay type: in vivo, BALB/c mice; conditions: FSGS mice
Procedure: Experiments described herein were performed on 8-week-old female BALB/c mice. The FSGS mice were injected intravenously with a single dose of adriamycin (0.1 mg/10 g body weight). The mice were given Compound 1 six hours before adriamycin injection by gavage daily till sacrifice. BALB/c mice intraperitoneal injected with normal saline were used as normal controls, while ASLN mice given vehicle (corn oil) by gavage were used as disease controls. Mice were killed at day 7, 14, or 21 after disease induction, and spleen, renal cortical tissue, and blood samples collected and stored appropriately until analysis. All animal experiments were performed with the ethical approval of the Institutional Animal Care and Use Committee of The National Defense Medical Center, Taiwan and performed according to the ethical rules in the NIH Guide for the Care and Use of Laboratory Animals.
For IHC, formalin-fixed and paraffin-embedded renal sections were prepared and incubated with primary antibodies against mouse Desmin (Lab Vision, CA, USA), CD3 (pan-T cell; Serotec, N.C., USA), F4/80 (monocytes/macrophages; Serotec), IL-6 (R&D Systems, MN, USA), NF-κB p65 (Cell Signaling Technology, MA, USA), collagen I, III, and IV (Southern Biotech, AL, USA), or TGF-β1 (Santa Cruz Biotechnology, CA, USA), biotinylated second antibodies (Dako, Glostrup, Denmark), and avidin-biotin-peroxidase complex (Dako). Semi-quantitative evaluation of staining was performed.
Nuclear proteins were extracted using a nuclear extract kit (Active Motif, Japan). Phospho-NF-κB p65 and nuclear factor-erythroid-2-related factor 2 (NrF2) were measured in renal tissue nuclear protein extracts using Trans-AM ELISA assay kits (Active Motif), according to the manufacturer's instructions. Renal cytosolic protein extracts using RIPA buffer (Cell signaling). Cytosolic glutathione peroxidase (GPx) (Cayman, Mich.) and cytosolic heme oxygenase-1 (HO-1) (Enzo Life Sciences, NY) were measured using commercial ELISA kits according to the manufacturer's instructions. Both were expressed relative to the protein concentration in the lysate.

Col-IV = test: AcP-IgAN model: renal Col-IV mRNA and protein; assay type: in vivo, B cell-deficient mice; conditions: AcP-IgAN mice
Procedure: (§1) B cell-deficient mice (B6.129S2-Igh-6tm1Cgn/J) were obtained from the Academia Sinica (Professor John T. Kung, Institute of Molecular Biology), and maintained at the animal center of the National Defense Medical Center, Taipei, Taiwan. AcP-IgAN was induced in the mice by daily injection of purified IgA anti-phosphorylcholine antibodies and pneumococcal C-polysaccharide (PnC) as described previously (Chao, et al., Kidney Int. 70:283-297; 2006). All animal experiments were performed with the approval of the Institutional Animal Care and Use Committee of The National Defense Medical Center, Taiwan, and were consistent with the NIH Guide for the Care and Use of Laboratory Animals.
(§2) For IHC, formalin fixed and paraffin embedded tissue sections or frozen sections were incubated with against IL-6 (R&D Systems, MN), MCP-1 (Santa Cruz, Calif.), F4/80 (monocytes/macrophages; Serotec, N.C.), collagen IV (Southern Biotech, AL), TGF-β1 (Santa Cruz), phopsho-NFκB p65 (Cell Signaling, MA), CD3 (pan-T cell; Serotec), CD4 (T helper cell; BioLegend, CA), CD8 (cytotoxic T cell), CD11b (macrophages/neutrophils), or CD11c (dendritic cells) (BD Biosciences, CA) antibodies. The FITC-conjugated, Alexa Fluor 488-conjugated (Invitrogen, CA) or horseradish peroxidase (HRP) conjugated secondary antibodies (DAKO, Denmark) were then applied to the sections. Hematoxylin or 4′,6-diamidino-2-phenylindole (DAKO) was used in the counter staining for nuclei.
(§3) Total cortical kidney RNA was extracted with TriZOL reagents (Invitrogen) from cortical tissue of the kidney. For first-strand cDNA synthesis, 1.5 μg of total RNA was used in a single-round reverse transcriptase reaction. The reaction mixture consisted of 0.9 μl of Oligo (dT) 12 to 18 primer, 1.0 mM deoxyribonucleotide triphosphate (dNTP), 1 μl first strand buffer, 0.4 mM dithiothreitol, 80 U of RNaseout recombinant ribonuclease inhibitor, and 300 U of superscript II RNase H (Invitrogen). Real-time PCR was performed on an ABI Prism 7700 Sequence Detection System (Applied Biosystems, CA). […]

splenocytes = test: AcP-IgAN model: T cell proliferation analysis (thymidine uptake); assay type: in vivo, B cell-deficient mice
Procedure: as §1
Splenocytes from the mice were prepared as described as above, then were cultured in triplicate in wells (5×10^5 cells in 200 μl/well) in 96-well flat-bottomed microtiter plates previously coated overnight at 4° C. with 0.25 μg/ml of anti-mouse CD3 antibody (BD Biosciences). After 48 hr, the cultures were pulsed with 1 μCi of 3H-methyl thymidine (Amersham Pharmacia Biotech, NJ), harvested 16 hr later, and the incorporated 3H-methyl thymidine measured using a TopCount (Packard, PerkinElmer, MA).

nitric oxide (NO) = test: AcP-IgAN model: NO levels; assay type: in vivo, B cell-deficient mice; conditions: AcP-IgAN mice
Excerpt: NO levels in serum were detected with NO Detection kit (iNtRON Biotechnology, Seongnam, Korea), based on diazotization (Griess method), according to the manufacturer's instructions.
as §1

IL-6 [1] = test: AcP-IgAN model: serum IL-6 ELISA; assay type: in vivo, B cell-deficient mice; conditions: AcP-IgAN mice
Procedure: as §1
Serum levels of IL-1β (eBiosceience, CA), IL-6 (eBiosceience), IL-18 (MBL, Japan), and MCP-1 (eBiosceience) were measured using commercial ELISA kits according to the manufacturer's instructions.

IL-18 = test: AcP-IgAN model: renal IL-18 mRNA and protein; assay type: in vivo, B cell-deficient mice; conditions: AcP-IgAN mice
Procedure: as §1
as §3, with “CA). All of the probes and primers were Assays-on-Demand Gene expression products (Applied Biosystems).” for “CA).”

IL-6 [2] = test: AcP-IgAN model: renal IL-6 mRNA and protein; assay type: in vivo, B cell-deficient mice; conditions: AcP-IgAN mice
Procedure: as §1, §2, §3

[3] = day 28, vs control AcP-IgAN mice

COC1=C(OC)[C@H](O)[C@H](C/C=C(\C)CC/C=C(\C)CCC=C(C)C)[C@@H](C)C1=O [Compound 1, Antroquinonol]
nuclear protein expression of NF-κB p65 (ELISA, renal nuclear extracts) (NF-κB p65; day 7): no significant difference | nuclear protein expression of NF-κB p65 (ELISA, renal nuclear extracts) (NF-κB p65; day 14): slightly blocked | NF-κB activation, nuclear NF-κB p65 expression (IHC) (NF-κB p65; day 14 and day 21, vs control FSGS mice): markedly inhibited | nuclear protein expression of NF-κB p65 (ELISA, renal nuclear extracts) (NF-κB p65; day 21): significantly inhibited | renal mRNA levels of Col-IV (Col-IV; day 3): basal mRNA levels | Col-IV protein levels in kidney (IHC) (Col-IV; [3]): substantially inhibited | renal mRNA expression of Col-IV (Col-IV; [3]): greatly inhibited | proliferation of CD3^+ T cell in splenocytes (thymidine uptake) (splenocytes; AcP-IgAN mice, day 28): near baseline levels of proliferation | proliferation of CD3^+ T cell in splenocytes (thymidine uptake) (splenocytes; day 3, worded as control AcP-IgAN mice relative to AcP-IgAN+Antroq mice): greatly increased proliferation of CD3^+ T cell in splenocytes compared to that of AcP-IgAN+Antroq mice | urine NO levels (nitric oxide (NO); both day 3 and day 28, vs control AcP-IgAN mice): significantly decreased | serum levels of NO (nitric oxide (NO); day 3, vs control AcP-IgAN mice): no significant difference | serum levels of NO (nitric oxide (NO); [3]): substantially reduced | serum IL-6 levels (IL-6 [1]; day 3, between control AcP-IgAN, AcP-IgAN+Antroq and normal control mice): no difference | serum levels of IL-6 (IL-6 [1]; [3]): substantially decreased | renal mRNA expression levels of IL-18 (elevation) (IL-18; day 3 until day 28, real-time PCR): greatly inhibited | renal IL-18 protein production (IL-18; only at day 28): significantly inhibited | renal expression levels of mRNA and protein of IL-6 (IL-6 [2]; day 3): no such effect | renal expression levels of mRNA of IL-6 (IL-6 [2]; [3]): significantly reduced | renal expression levels of protein of IL-6 (IL-6 [2]; [3]): significantly reduced
